1 compound from publication PMC12624743 (ACS Infectious Diseases, 2025) can be followed below.

Structures are written as SMILES. In brackets after ≈: the same amount, converted by molar mass.

Experiment [1] deals with N. gonorrhoeae FA1090 (ATCC 700825). Nature of the experiment: MIC by agar dilution, parental strain FA1090. Format: cell-based. The note with it: Neisseria gonorrhoeae, ATCC700825, parental strain FA1090, GyrA WT / ParC WT. The procedure: A series of isogenic N. gonorrhoeae strains was constructed that carried the specific target mutations GyrA^A92T or GyrA^D90N either alone or in combination with ParC^D86N or GyrA^S91F/D95G in a ciprofloxacin-susceptible strain, FA1090 (ATCC 700825).
All N. gonorrhoeae isolates were cultured and grown on GC agar plates or in fastidious broth (Remel, 07664). Minimum inhibitory concentration (MIC) of test compounds was determined by an agar dilution method, the reference testing method for N. gonorrhoeae according to the standards of the Clinical and Laboratory Standards Institute and the CDC. MIC values were determined after incubation at 37 °C for 48 h in 5% CO2.

The subject of experiment [2] is N. gonorrhoeae FA1090-Q1 (GyrA^S91F/D95G, ParC WT). The experiment can be described thus: MIC by agar dilution, fluoroquinolone-resistant GyrA^S91F/D95G strain. The note with it: Neisseria gonorrhoeae. Format: cell-based. The procedure: Minimum inhibitory concentration (MIC) of test compounds was determined by an agar dilution method, the reference testing method for N. gonorrhoeae according to the standards of the Clinical and Laboratory Standards Institute and the CDC.
For orientation: In agar dilution, organisms are placed on agar that contains the substance at set levels.

Usually MIC stands for the lowest concentration that inhibits growth of the organism. For `O=C(O)c1cn(C2CC2)c2cc(N3CCNCC3)c(F)cc2c1=O` [ciprofloxacin], the minimal inhibitory concentration (MIC) in experiment [1] was 0.004 µg/mL; in experiment [2], 0.25 µg/mL (≈ 0.754 µM).
